Holding throughout (assay): DTP human tumour cell line panel, 48 h
Assay [1] has as its system Hs-578T.
Assay [2] concerns KM12.
Assay [3] relates to SW-620.
Assay [4] has as its system SK-MEL-2.
Assay [5] relates to SR.
The test system of assay [6] is K562.
In assay [7] the test system is HL-60.
The test system of assay [8] is HCT-116.
For assay [9], the system named is U-251.
Assay [10] relates to IGROV-1.
Assay [11] has as its system SF-539.
The subject of assay [12] is A498.
Assay [13] relates to OVCAR-8.
Assay [14] relates to ACHN.
For assay [15], the system named is LOX IMVI.
Assay [16] deals with NCI-H460.
Assay [17] concerns CCRF-CEM.
In assay [18] the test system is NCI-H226.
Assay [19] has as its system SK-MEL-5.
Assay [20] has as its system PC-3.

The source of these data is ChEMBL document CHEMBL1201862, “PubChem BioAssay data set” (2004).

Molecules are shown by their SMILES.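 These data come from cells grown in 96-well plates and exposed to compound for 48 hours at five concentrations. At the GI50, growth is halved.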 Calls of active or inactive are those of the source. No stated cut-off is given here; in the data, active = GI50 up to about 1.1 µM and inactive = higher.

Take `CC1(C)CCC(C)(C)c2cc(NC(=O)c3ccc(C(=O)O)cc3)ccc21` [TAMIBAROTENE]: the GI50 in [1] was 24.5 µM (inactive); in assay [2], 20.7 µM (inactive); in assay [3], > 60.4 µM (inactive); in assay [4], 25.6 µM (inactive); in assay [5] it was > 69.8 µM (inactive); in assay [6], 54.7 µM (inactive). Moreover, the GI50 in assay [7] was 44.5 µM (inactive); in assay [8], 18.7 µM (inactive); in [9], 24.7 µM (inactive); in assay [10], 34.8 µM (inactive); in assay [11], 17.7 µM (inactive); in assay [12], 23.7 µM (inactive). For the same compound, the GI50 in [13] was 41.5 µM (inactive); in [14], 36.5 µM (inactive); in assay [15] it was 22.9 µM (inactive); in assay [16] it was 21.3 µM (inactive); in [17], 16.8 µM (inactive); in [18], 22.2 µM (inactive). Besides, the GI50 is 29.5 µM (inactive) in assay [19] and 25.8 µM (inactive) in [20].
For `ClCCCCCc1c2nc(c(CCCCCCl)c3ccc([nH]3)c(CCCCCCl)c3nc(c(CCCCCCl)c4ccc1[nH]4)C=C3)C=C2`, the GI50 in assay [1], in [2], in assay [3], in assay [4], in assay [5] and in assay [6] was > 100 µM (inactive) in each case. For the same compound, the GI50 in assay [7], in assay [8], in assay [9], in assay [10], in assay [11] and in assay [12] was > 100 µM (inactive) each time. The GI50 in assay [13], in [14], in assay [15], in [16], in assay [17] and in assay [18] was > 100 µM (inactive) each time. The GI50 in assay [19] and in [20] was > 100 µM (inactive) throughout.
As for `COc1c(C)c(C/C=C(\C)CCCCO[Si](c2ccccc2)(c2ccccc2)C(C)(C)C)c(OC)c(OC)c1OC`, the GI50 in [1] was > 100 µM (inactive); in assay [2], 14.8 µM (inactive); in [3], 45.6 µM (inactive); in assay [4], > 100 µM (inactive); in [5], 43.2 µM (inactive); in assay [6], 28.8 µM (inactive). Moreover, the GI50 was 47.3 µM (inactive) in assay [7]; 35.5 µM (inactive) in [8]; > 46.5 µM (inactive) in assay [9]; 24.9 µM (inactive) in assay [10]; > 46.5 µM (inactive) in assay [11]; > 100 µM (inactive) in [12]. In addition, the GI50 was 20.2 µM (inactive) in assay [13]; 16.2 µM (inactive) in [14]; 15.5 µM (inactive) in assay [15]; 14.6 µM (inactive) in [16]; > 46.5 µM (inactive) in assay [17]; > 100 µM (inactive) in assay [18]. The GI50 in assay [19] was 30.1 µM (inactive); in [20], > 85.7 µM (inactive).
`O=[N+]([O-])c1cc2c(c([N+](=O)[O-])c1)NCc1ccccc1O2`: the GI50 in assay [1] is 70.8 µM (inactive); in assay [2] it was > 100 µM (inactive); in assay [3], > 100 µM (inactive); in [4] it was 76.6 µM (inactive); in assay [5], 55.5 µM (inactive); in assay [6], > 10 µM (inactive). For the same compound, the GI50 was > 100 µM (inactive) in assay [7]; > 100 µM (inactive) in [8]; 41.2 µM (inactive) in [9]; > 100 µM (inactive) in [10]; 69.3 µM (inactive) in [11]; > 100 µM (inactive) in [12]. In addition, the GI50 in assay [13] is 71.1 µM (inactive); in assay [14], > 100 µM (inactive); in [15] it was > 100 µM (inactive); in assay [16] it was > 100 µM (inactive); in assay [17] it was 24.3 µM (inactive); in assay [18], > 100 µM (inactive). Besides, the GI50 in [19] and in assay [20] was > 100 µM (inactive) each time.
`Cc1cc(CS(=O)(=O)/C=C/c2ccccc2[N+](=O)[O-])c(CS(=O)(=O)/C=C/c2ccccc2[N+](=O)[O-])cc1C`: the GI50 in assay [1] is 3.44 µM (inactive); in assay [2] it was 81.8 µM (inactive); in assay [3], > 54.2 µM (inactive); in [4] it was 15.4 µM (inactive); in [5], 13.7 µM (inactive); in assay [6], 35.3 µM (inactive). Also, the GI50 in [7] is > 79.4 µM (inactive); in assay [8] it was 37 µM (inactive); in assay [9] it was 19.6 µM (inactive); in [10], 30.8 µM (inactive); in [11], 14.4 µM (inactive); in assay [12] it was 26.5 µM (inactive). The GI50 in assay [13] is 24.1 µM (inactive); in [14], 34.4 µM (inactive); in assay [15], 24.3 µM (inactive); in assay [16], 33.8 µM (inactive); in [17], 21.5 µM (inactive); in assay [18], 19 µM (inactive). In addition, the GI50 was 37.2 µM (inactive) in [19] and 42.4 µM (inactive) in [20].
For `CC(=O)O[C@H]1CC[C@H]2[C@@H]3CCC4C(C)=NNC(=O)C4[C@H]3CC[C@]12C` (stereo not given in full), the GI50 was 17.8 µM (inactive) in assay [1]; > 100 µM (inactive) in assay [2]; > 100 µM (inactive) in [3]; > 75.2 µM (inactive) in [4]; > 100 µM (inactive) in assay [5]; > 100 µM (inactive) in assay [6]. Further, the GI50 in assay [7] was > 100 µM (inactive); in assay [8], > 73.5 µM (inactive); in assay [9], 36.5 µM (inactive); in assay [10], 27 µM (inactive); in assay [11] it was 65.9 µM (inactive); in assay [12], 37.2 µM (inactive). In addition, the GI50 was 38 µM (inactive) in assay [13]; 57.5 µM (inactive) in assay [14]; > 38.6 µM (inactive) in [15]; > 100 µM (inactive) in [16]; > 100 µM (inactive) in assay [17]; 39.5 µM (inactive) in [18]. Also, the GI50 in assay [19] and in assay [20] was > 100 µM (inactive) throughout.
As to `CCCCCCCCCc1cccc(N2C(N)=NC(N)=NC2(C)C)c1`, the GI50 is 1.04 µM (active) in [1]; 0.0139 µM (active) in assay [2]; < 0.01 µM (active) in assay [3]; 0.993 µM (active) in assay [4]; < 0.01 µM (active) in [5]; < 0.01 µM (active) in [6]. The GI50 in [7] was < 0.01 µM (active); in [8], < 0.01 µM (active); in [9], < 0.01 µM (active); in [10], < 0.01 µM (active); in [11], 0.0339 µM (active); in [12] it was 1.24 µM (inactive). Moreover, the GI50 was < 0.01 µM (active) in assay [13]; < 0.0158 µM (active) in assay [14]; < 0.01 µM (active) in assay [15]; < 0.01 µM (active) in assay [16]; 0.197 µM (active) in [17]; 1.26 µM (inactive) in [18]. Further, the figures for the GI50 in assay [19] and in [20] were 0.0277 µM (active) and < 0.0184 µM (active), respectively.
On to `Cn1c(=O)c2c(nc3n(CCCCl)c(=O)ccn23)n(C)c1=O`, for which the GI50 in assay [1], in [2], in [3], in assay [4], in [5] and in assay [6] was > 100 µM (inactive) in each case. Also, the GI50 in assay [7], in assay [8], in assay [9], in assay [10], in [11] and in [12] was > 100 µM (inactive) each time. The GI50 in assay [13], in assay [14], in assay [15], in [16], in [17] and in assay [18] was > 100 µM (inactive) throughout. The GI50 in assay [19] and in [20] was > 100 µM (inactive) throughout.
As to `COC(=O)c1ccccc1NCc1cc(O)ccc1O`, the GI50 was 19.7 µM (inactive) in assay [1]; 17.5 µM (inactive) in assay [2]; 24.2 µM (inactive) in assay [3]; 22.3 µM (inactive) in assay [4]; > 10 µM (inactive) in assay [5]; 19.6 µM (inactive) in assay [6]. The GI50 in [7] was 8 µM (inactive); in assay [8] it was 19.5 µM (inactive); in [9], 20.1 µM (inactive); in assay [10] it was 25.9 µM (inactive); in [11] it was 17.7 µM (inactive); in assay [12], 34.3 µM (inactive). Further, the GI50 in assay [13] is 18.1 µM (inactive); in assay [14], 16.2 µM (inactive); in assay [15], 17.1 µM (inactive); in [16] it was 30.1 µM (inactive); in assay [17], 4.91 µM (inactive); in [18], 18 µM (inactive). For the same compound, the GI50 in assay [19] is 19 µM (inactive); in assay [20], 17 µM (inactive).
Turning to `Cc1ccc(-c2cc(-c3c(C)nn(C)c(=O)c3N)n[nH]2)cc1`, the GI50 in [1], in assay [2], in assay [3], in assay [4], in assay [5] and in [6] was > 100 µM (inactive) each time. Besides, the GI50 in [7] was > 100 µM (inactive); in assay [8], > 100 µM (inactive); in assay [9], > 100 µM (inactive); in [10] it was > 100 µM (inactive); in assay [11] it was > 100 µM (inactive); in [12], 28.5 µM (inactive). The GI50 in [13], in assay [14], in [15], in assay [16], in [17] and in assay [18] was > 100 µM (inactive) in each case. In addition, the GI50 in assay [19] and in assay [20] was > 100 µM (inactive) in each case.
